Measurements reported in US9446015B2, “Quinone based nitric oxide donating compounds for ophthalmic use” (NICOX SCIENCE IRELAND, priority 2012, dated 2016).

How the values were obtained:
[1] = tested on: endothelial-dependent vasodilation of rat aortas; experiment: Endothelial dysfunction evaluation, vascular response to acetylcholine; format: cell-based; settings: 5-day treatment; 5-ISMN 30 mg/kg, Compound (6) 100 mg/kg
Method: Thoracic aortas from male New Zealand rabbits or male Sprague Dawley (SD) were used. The aortas were placed immediately in Krebs-HEPES buffer (pH 7.4; composition mM: NaCl 130.0, KCl 3.7, NaHCO3 14.9, KH2PO4 1.2, MgSO4.7H2O 1.2, Glucose 11.0, HEPES 10.0, CaCl2.2H2O 1.6). Connective tissue was removed and aortas were cut into ring segments (4-5 mm in length). Each ring was placed in a 5 mL tissue bath filled with Krebs-HEPES buffer (37° C.) aerated with 95% O2 and 5% CO2 and was attached to a force transducer (Grass FT03), connected to a BIOPAC MP150 System for measurement of the isometric tension. Preparations were allowed to equilibrate for 1 h at a resting tension of 2 g for rabbit aortas and 1 g for rat aortas with changes of the buffer every 15 min. Then the rings were stimulated by exposure to 90 mM KCl (3 times) with intervening washings.
Rat aorta. After equilibration, rat aortas were precontracted with KCl (90 mM) and, when the contraction was stable, a cumulative concentration-response curve to acetylcholine (ACh, 0.01-100 μM) was added. After washout, the rings were precontracted again with KCl (90 mM). When a steady-state level of contraction was obtained, a cumulative concentration-response curve to the tested compounds (0.01-100 μM) was obtained.
Data analysis. Results are given as mean±SEM. Vascular responses are expressed as percentage relaxation and plotted vs concentration. The sensitivity of isolated aorta to different vasodilators is expressed as the concentration that elicited 50% of the maximal responses (EC50). Responses are quantified in terms of EC50 and Emax (maximal vasodilating effect) values, obtained from the concentration-response curve by nonlinear curve fitting, using GraphPad software.
Endothelial-dependent vasodilation (vascular response to acetylcholine, ACh) was assessed following 5-day treatment with Compound (6) (100 mg/kg) or 5-ISMN (30 mg/kg). A relaxant response to ACh indicated the presence of a functional endothelium. The vascular response was performed as described in Example 6.

[2] = tested on: ocular normotensive New Zealand rabbits; experiment: IOP lowering activity in ocular normotensive New Zealand rabbits; format: in vivo, New Zealand White rabbits
Method: Intraocular pressure (IOP) lowering activity in ocular normotensive New Zealand rabbits.
• compound (6) • timolol that is a drug commonly used for the treatment of glaucoma and ocular hypertension. • Isosorbide mononitrate (5-ISMN) that is a commonly used nitric oxide donor drug.
(§1) Timolol, dorzolamide and 5-ISMN were tested as reference compounds. Adults male New Zealand White rabbits weighting 1.8-2.0 Kg were used in the experiments.
IOP was measured using a pneumatonometer 30 CLASSIC™ before topical application (basal) and a different time point (30, 60, 120, 240 and 300 min) thereafter. Vehicle (5% cremophor-EL; 0.3% DMSO; 0.2 mg/ml BAK in PBS pH 6.0) or tested compounds dissolved in the vehicle were instilled as eye drops into the conjunctiva pocket. Eyes were randomly assigned to different treatment groups. One drop of 0.4% oxybuprocaine hydrochloride (Novesine, Sandoz) was instilled in each eye immediately before each set of pressure measurements.
The test results are reported in Table 7, the ocular hypotensive activity is expressed as IOP changes at 30, 60, 120 and 300 minutes after topical administration versus vehicle and versus IOP at basal.

[3] = tested on: hypertonic saline-induced IOP increase in rabbits; experiment: IOP lowering activity in hypertonic saline-induced IOP increase in rabbits; format: in vivo, New Zealand White rabbits
From the text: Intraocular pressure (IOP) lowering activity in hypertonic saline-induced IOP increase in rabbits.
This animal model of elevated IOP was used for assessing the intraocular pressure (IOP) lowering activities of some compounds of the invention, timolol, dorzolamide and 5-isosorbide mononitrate.
• compounds (6), (20) and (25) • timolol and dorzolamide that are drugs commonly used for the treatment of glaucoma and ocular hypertension. • Isosorbide mononitrate (5-ISMN) that is a commonly used nitric oxide donor drug.
as §1
IOP was measured using a Tono-Pen XL prior to hypertonic saline injection (basal) and at 30, 60, 120 and 240 min thereafter. Vehicle (5% cremophor-EL; 0.3% DMSO; 0.2 mg/ml BAK in PBS pH 6.0) and all the tested compounds dissolved in the vehicle were instilled as eye drops immediately after hypertonic saline injection. Eyes were randomly assigned to different treatment groups. Vehicle and the tested compounds were directly instilled into the conjunctiva pocket at the desired doses. One drop of 0.4% oxybuprocaine hydrochloride (Novesine, Sandoz) was instilled in each eye immediately before each set of pressure measurements.
Results are reported in Table 6, the ocular hypotensive activities of the tested compounds are expressed as IOP change at 60 and 120 minutes after topical administration versus vehicle and versus the basal IOP.

[4] = 60 min after topical administration
[5] = 120 min after topical administration

Question: Which “effect on endothelial-dependent vasorelaxation (response to ACh)” value [1] does the source give for `COC1=C(OC)C(=O)C(CCCCCCCCCCO[N+](=O)[O-])=C(C)C1=O` [Compound (6), 10-(4,5-dimethoxy-2-methyl-3,6-dioxocyclohexa-1,4-dienyl)decyl nitrate] here?
Answer: Its value is “did not modify endothelial-dependent vasorelaxation”.

Question: What about the “ΔΔ (mmHg), IOP change versus vehicle and versus IOP at basal” value ([2]; 30 min after topical administration) of the same compound?
Answer: The value was −1.8 ± 0.4 mmHg.

Question: And the “ΔΔ (mmHg), IOP change versus vehicle and versus IOP at basal” value [2, 4]?
Answer: The value was −1.6 ± 0.3 mmHg.

Question: And the “ΔΔ (mmHg), IOP change versus vehicle and versus IOP at basal” value [2, 5]?
Answer: The value was −1.3 ± 0.5 mmHg.

Question: And the “ΔΔ (mmHg), IOP change versus vehicle and versus IOP at basal” value ([2]; 300 min after topical administration)?
Answer: The value was −1.5 ± 0.4 mmHg.

Question: And the “ΔΔ (mmHg), IOP change versus vehicle and versus basal IOP” value [3, 4]?
Answer: The value was −7.4 ± 2.7 mmHg.

Question: What about the “ΔΔ (mmHg), IOP change versus vehicle and versus basal IOP” value [3, 5] of the same compound?
Answer: Its value is −9.8 ± 2.0 mmHg.
